Test results taken from patent US11478451B1, “Macrocyclic chlorine substituted indole derivatives” (Bayer Aktiengesellschaft, priority 2017, dated 2022).
Counter-ions that a name gives are not always drawn. Like-named read-outs stand apart in the source and are kept apart here.

Legend:
SUDHL10 cells [1] = assay: Induction of caspase-3/7 activity (Caspase-Glo 3/7), SUDHL10; type: cell-based; settings: EC50, median, SUDHL10, 3 h treatment
How it was run: (§1)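 Steps: seed the diffuse large B-cell lymphoma cells, leaving rim wells unused; add compounds; incubate 3 h at 37 °C; add Caspase-Glo 3/7 reagent; read; subtract medium-only background.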

SUDHL5 cells [2] = assay: Induction of cytotoxicity (CellTiter-Glo, 5 h), SUDHL5; settings: SUDHL5, 5 h
HMC-1-8 cells = assay: Antiproliferation assay (CellTiter-Glo, 72 h), HMC-1-8; type: cell-based; settings: IC50, median, HMC-1-8, 72 h, read-out: Antiproli HMC-1-8 [M] median
How it was run: (§2)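 Luminescent ATP-based viability (CellTiter-Glo) measured after 72 h of compound treatment at 37 °C. A day 0 plate recorded at time zero served as the starting reference for proliferation.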

SUDHL5 cells [3] = assay: Induction of caspase-3/7 activity (Caspase-Glo 3/7), SUDHL5; type: cell-based; settings: EC50, median, SUDHL5, 3 h treatment
How it was run: as §1

AMO-1 cells = assay: Antiproliferation assay (CellTiter-Glo, 72 h), AMO-1; type: cell-based; settings: IC50, median, AMO-1, 72 h, read-out: Antiproli AMO-1 [M] median
How it was run: as §2

SUDHL5 cells [4] = assay: Antiproliferation assay (CellTiter-Glo, 72 h), SUDHL5; type: cell-based; settings: IC50, median, SUDHL5, 72 h, read-out: Antiproli SUDHL5 [M] (median)
How it was run: as §2

SUDHL10 cells [5] = assay: Induction of cytotoxicity (CellTiter-Glo, 5 h), SUDHL10; settings: SUDHL10, 5 h
[6] = Homo sapiens, SU-DHL-5, 5 h, read-out: Cytotox SUDHL5 [M] (median), IC50, median
[7] = Homo sapiens, SU-DHL10, 5 h, read-out: Cytotox SUDHL10 [M] (median), IC50, median
[8] = read-out: Cytotox SUDHL5 [M] (median), IC50, median
[9] = read-out: Cytotox SUDHL10 [M] (median), IC50, median

In the case of `CCc1c2c(nn1C)CCCN(CCCCO)CCn1c(C(=O)O)c(CCCOc3cccc4cc(F)ccc34)c3ccc(Cl)c-2c31` (racemic) [Example 122, (rac)-4-chloro-3-ethyl-7-{3-[(6-fluoro-1-naphthyl)oxy]propyl}-12-(4-hydroxybutyl)-2-methyl-10,11,12,13,14,15-hexahydro-2H-pyrazolo[3′,4′:8,9][1,4]diazacycloundecino[10,11,1-hi]indole-8-carboxylic acid], the EC50 (SUDHL10 cells [1]; Homo sapiens, SU-DHL10, 3 h) is reported as 750 nM, the IC50 (SUDHL5 cells [2]; [6]) is reported as 1.1e-06 M and the IC50 (HMC-1-8 cells; 72 h) is reported as 6.6e-06 M. The EC50 (SUDHL5 cells [3]; Homo sapiens, SU-DHL-5, 3 h) was 920 nM, the IC50 (AMO-1 cells; Homo sapiens, AMO1, 72 h) was 5.1e-07 M and the IC50 (SUDHL5 cells [4]; Homo sapiens, SU-DHL-5, 72 h) was 6.8e-07 M. It also gave an IC50 (SUDHL10 cells [5]; [7]) of 1.1e-06 M.
Work on `CCc1c2c(nn1C)CCCN(CCCCOC(C)=O)CCn1c(C(=O)O)c(CCCOc3cccc4cc(F)ccc34)c3ccc(Cl)c-2c31` (racemic) [Example 121, (rac)-12-(4-acetoxybutyl)-4-chloro-3-ethyl-7-{3-[(6-fluoro-1-naphthyl)oxy]propyl}-2-methyl-10,11,12,13,14,15-hexahydro-2H-pyrazolo[3′,4′:8,9][1,4]diazacycloundecino[10,11,1-hi]indole-8-carboxylic acid] yielded an EC50 (SUDHL10 cells [1]; Homo sapiens, SU-DHL10, 3 h) of 1700 nM, an IC50 (SUDHL5 cells [2]; [6]) of 1.3e-06 M and an IC50 (HMC-1-8 cells; 72 h) of 9.9e-06 M. It also gave an EC50 (SUDHL5 cells [3]; Homo sapiens, SU-DHL-5, 3 h) of 1200 nM, an IC50 (AMO-1 cells; Homo sapiens, AMO1, 72 h) of 1.3e-06 M and an IC50 (SUDHL5 cells [4]; Homo sapiens, SU-DHL-5, 72 h) of 9e-07 M. For the same molecule, the IC50 (SUDHL10 cells [5]; [7]) was 1.9e-06 M.
In the case of `CCc1c2c(nn1C)CN(C(=O)OCCC1CCOCC1)CCCCn1c(C(=O)O)c(CCCOc3cccc4cc(F)ccc34)c3ccc(Cl)c-2c31` [Example 138, (rac)-4-chloro-3-ethyl-7-{3-[(6-fluoronaphthalen-1-yl)oxy]propyl}-2-methyl-14-{[2-(oxan-4-yl)ethoxy]carbonyl}-10,11,12,13,14,15-hexahydro-2H-pyrazolo[3′,4′:8,9][1,6]diazacycloundecino[10,11,1-hi]indole-8-carboxylic acid], the EC50 (SUDHL10 cells [1]; Homo sapiens, SU-DHL10, 3 h) is reported as 380 nM, the IC50 (SUDHL5 cells [2]; [6]) is reported as 2.4e-07 M and the IC50 (HMC-1-8 cells; 72 h) is reported as 3e-06 M. For the same molecule, the EC50 (SUDHL5 cells [3]; Homo sapiens, SU-DHL-5, 3 h) was 280 nM, the IC50 (AMO-1 cells; Homo sapiens, AMO1, 72 h) was 4.7e-07 M and the IC50 (SUDHL5 cells [4]; Homo sapiens, SU-DHL-5, 72 h) was 3.5e-07 M. It also gave an IC50 (SUDHL10 cells [5]; [7]) of 6e-07 M.
`CCc1c2c(nn1C)CCCCCCn1c(C(=O)O)c(CCCOc3cccc4ccccc34)c3ccc(Cl)c-2c31` (single isomer, unassigned; enantiomer 2) [Example 53, (−) 4-chloro-3-ethyl-2-methyl-7-{3-[(naphthalen-1-yl)oxy]propyl}-10,11,12,13,14,15-hexahydro-2H-pyrazolo[4′,3′:4,5]azacycloundecino[3,2,1-hi]indole-8-carboxylic acid-N-ethylethanamine salt—Enantiomer 2] gave an EC50 (SUDHL10 cells [1]) of 700 nM, an IC50 (SUDHL5 cells [2]; [8]) of 4.8e-07 M and an IC50 (HMC-1-8 cells; 72 h) of 6.9e-06 M. It also gave an EC50 (SUDHL5 cells [3]) of 660 nM, an IC50 (AMO-1 cells) of 1.5e-06 M and an IC50 (SUDHL5 cells [4]) of 7.4e-07 M. The IC50 (SUDHL10 cells [5]; [9]) was 9.7e-07 M.
With `Cc1c2c(nn1C)COCC(F)(F)CCn1c(C(=O)O)c(CCCOc3cccc4ccccc34)c3ccc(Cl)c-2c31` (racemic) [Example 55, (rac)-4-chloro-12,12-difluoro-2,3-dimethyl-7-{3-[(naphthalen-1-yl)oxy]propyl}-2,10,11,12,13,15-hexahydropyrazolo[4′,3′:9,10][1,6]oxazacycloundecino[8,7,6-hi]indole-8-carboxylic acid] the EC50 (SUDHL10 cells [1]) was 520 nM, the IC50 (SUDHL5 cells [2]; [8]) was 6.7e-07 M and the IC50 (HMC-1-8 cells; 72 h) was 2.2e-06 M. For the same molecule, the EC50 (SUDHL5 cells [3]) was 600 nM, the IC50 (AMO-1 cells) was 1.4e-06 M and the IC50 (SUDHL5 cells [4]) was 4.3e-07 M. The IC50 (SUDHL10 cells [5]; [9]) was 7.4e-07 M.
`CCc1c2c(nn1C)CCCN(C)CCn1c(C(=O)O)c(CCCOc3cccc4cc(F)ccc34)c3ccc(Cl)c-2c31` (racemic) [Example 115, (rac)-4-chloro-3-ethyl-7-{3-[(6-fluoronaphthalen-1-yl)oxy]propyl}-2,12-dimethyl-10,11,12,13,14,15-hexahydro-2H-pyrazolo[3′,4′:8,9][1,4]diazacycloundecino[10,11,1-hi]indole-8-carboxylic acid] was tested, and the EC50 (SUDHL10 cells [1]; Homo sapiens, SU-DHL10, 3 h) was 1400 nM, the IC50 (SUDHL5 cells [2]; [6]) was 4.4e-07 M and the IC50 (HMC-1-8 cells; 72 h) was 8e-06 M. For the same molecule, the EC50 (SUDHL5 cells [3]; Homo sapiens, SU-DHL-5, 3 h) was 160 nM, the IC50 (AMO-1 cells; Homo sapiens, AMO1, 72 h) was 9.1e-07 M and the IC50 (SUDHL5 cells [4]; Homo sapiens, SU-DHL-5, 72 h) was 7.8e-07 M. For the same molecule, the IC50 (SUDHL10 cells [5]; [7]) was 1.4e-06 M.
`CCc1c2c(nn1C)COCC(F)(F)CCn1c(C(=O)O)c(CCCOc3cccc4cc(F)ccc34)c3ccc(Cl)c-2c31` (single isomer, unassigned) [Example 85, (−)-4-chloro-3-ethyl-12,12-difluoro-7-{3-[(6-fluoronaphthalen-1-yl)oxy]propyl}-2-methyl-2,10,11,12,13,15-hexahydropyrazolo[4′,3′:9,10][1,6]oxazacycloundecino[8,7,6-hi]indole-8-carboxylic acid] showed an EC50 (SUDHL10 cells [1]; Homo sapiens, SU-DHL10, 3 h) of 320 nM, an IC50 (SUDHL5 cells [2]; read-out: Cytotox SUDHL5 [M] (median), IC50, median, listed as 085) of 3e-07 M and an IC50 (HMC-1-8 cells; 72 h) of 3.3e-06 M. For the same molecule, the EC50 (SUDHL5 cells [3]; listed as 085) was 180 nM, the IC50 (AMO-1 cells; listed as 085) was 4.9e-07 M and the IC50 (SUDHL5 cells [4]; listed as 085) was 3.6e-07 M. The IC50 (SUDHL10 cells [5]; [7]) was 9.8e-07 M.
For `CCc1c2c(nn1C)CN(C)CC(F)(F)CCn1c(C(=O)O)c(CCCOc3cccc4cc(F)ccc34)c3ccc(Cl)c-2c31` (single isomer, unassigned) [Example 127, 4-chloro-3-ethyl-12,12-difluoro-7-{3-[(6-fluoronaphthalen-1-yl)oxy]propyl}-2,14-dimethyl-10,11,12,13,14,15-hexahydro-2H-pyrazolo[3′,4′:8,9][1,6]diazacycloundecino[10,11,1-hi]indole-8-carboxylic acid], the EC50 (SUDHL10 cells [1]) was 480 nM, the IC50 (SUDHL5 cells [2]; [8]) was 2.4e-07 M and the IC50 (HMC-1-8 cells; 72 h) was 2.2e-06 M. The EC50 (SUDHL5 cells [3]) was 280 nM, the IC50 (AMO-1 cells) was 5.8e-07 M and the IC50 (SUDHL5 cells [4]) was 4.3e-07 M. The IC50 (SUDHL10 cells [5]; [9]) was 3.8e-07 M.
Molecule `CCc1c2c(nn1C)COCCC(F)(F)Cn1c(C(=O)O)c(CCCOc3cccc4cc(F)ccc34)c3ccc(Cl)c-2c31` (single isomer, unassigned) [Example 98, (+)-4-chloro-3-ethyl-11,11-difluoro-7-{3-[(6-fluoronaphthalen-1-yl)oxy]propyl}-2-methyl-2,10,11,12,13,15-hexahydropyrazolo[4′,3′:9,10][1,6]oxazacycloundecino[8,7,6-hi]indole-8-carboxylic acid] has an EC50 (SUDHL10 cells [1]; listed as 098) of 5000 nM, an IC50 (SUDHL5 cells [2]; read-out: Cytotox SUDHL5 [M] (median), IC50, median, listed as 098) of 7.3e-06 M and an IC50 (HMC-1-8 cells; listed as 098) of 5.9e-06 M. The EC50 (SUDHL5 cells [3]; listed as 098) was 6200 nM, the IC50 (AMO-1 cells; listed as 098) was 6.9e-06 M and the IC50 (SUDHL5 cells [4]; listed as 098) was 2.2e-06 M. The IC50 (SUDHL10 cells [5]; read-out: Cytotox SUDHL10 [M] (median), IC50, median, listed as 098) was 6.3e-06 M.
For `CCc1c2c(nn1C)CN(CC(F)F)CCCCn1c(C(=O)O)c(CCCOc3cccc4cc(F)ccc34)c3ccc(Cl)c-2c31` (single isomer, unassigned; enantiomer 2) [Example 76, (−)-4-chloro-14-(2,2-difluoroethyl)-3-ethyl-7-{3-[(6-fluoronaphthalen-1-yl)oxy]propyl}-2-methyl-10,11,12,13,14,15-hexahydro-2H-pyrazolo[3′,4′:8,9][1,6]diazacycloundecino[10,11,1-hi]indole-8-carboxylic acid N-ethylethanamine salt (Enantiomer 2)], the EC50 (SUDHL10 cells [1]; listed as 076) was 260 nM, the IC50 (SUDHL5 cells [2]; read-out: Cytotox SUDHL5 [M] (median), IC50, median, listed as 076) was 3e-07 M and the IC50 (HMC-1-8 cells; listed as 076) was 4.4e-06 M. For the same molecule, the EC50 (SUDHL5 cells [3]; listed as 076) was 240 nM, the IC50 (AMO-1 cells; listed as 076) was 2.4e-07 M and the IC50 (SUDHL5 cells [4]; listed as 076) was 3.2e-07 M. For the same molecule, the IC50 (SUDHL10 cells [5]; read-out: Cytotox SUDHL10 [M] (median), IC50, median, listed as 076) was 4e-07 M.
`CCc1c2c(nn1C)COCC1CC1Cn1c(C(=O)O)c(CCCOc3cccc4cc(F)ccc34)c3ccc(Cl)c-2c31` (single isomer, unassigned; (+)) [Example 107] showed an EC50 (SUDHL10 cells [1]) of 470 nM, an IC50 (SUDHL5 cells [2]; [8]) of 4.6e-07 M and an IC50 (HMC-1-8 cells; 72 h) of 2.4e-06 M. The EC50 (SUDHL5 cells [3]) was 390 nM, the IC50 (AMO-1 cells) was 5.5e-07 M and the IC50 (SUDHL5 cells [4]) was 7.2e-07 M. The IC50 (SUDHL10 cells [5]; [7]) was 5.9e-07 M.
